This is an account of results in article PMC6861653 (Chembiochem : a European journal of chemical biology, 2019).

The structures appear in SMILES notation. *1 amine or outer side, *2 acyl side, *3 side chain or, on linkers, in order; H or OH if unused. Where a SMILES comes first, the peptide text is derived from it. [ ]: non-standard residue; d: D form. X1 = O=C([C@H]1CCC[C@@H]1N[*:1])[*:2]

What all share (assay type): cell-based
Experiment [1] addresses T1, GLP-1R (Homo sapiens, UniProt P43220). As to the kind of experiment: Signaling bias by Black-Leff operational model.
Experiment [2] has as its target T1, GLP-1R. As to conditions: HEK293 GloSensor cells transiently expressing GLP-1R.
Experiment [3] addresses GLP-1R-RLuc8 / GFP^2-β-arrestin-2(R393E, R395E) (Homo sapiens, UniProt P43220). As to the kind of experiment: β-arrestin-2 recruitment to GLP-1R, BRET assay in HEK293FT cells. On the technique in general: Arrestin recruitment assays detect the binding of arrestin to an activated receptor.
Experiment [4] addresses GLP-1R-RLuc8 / GFP^2-β-arrestin-1 (Homo sapiens, UniProt P43220). As to the kind of experiment: β-arrestin-1 recruitment to GLP-1R, BRET assay in HEK293FT cells.

T1 sequence (P43220 24-463, species assumed): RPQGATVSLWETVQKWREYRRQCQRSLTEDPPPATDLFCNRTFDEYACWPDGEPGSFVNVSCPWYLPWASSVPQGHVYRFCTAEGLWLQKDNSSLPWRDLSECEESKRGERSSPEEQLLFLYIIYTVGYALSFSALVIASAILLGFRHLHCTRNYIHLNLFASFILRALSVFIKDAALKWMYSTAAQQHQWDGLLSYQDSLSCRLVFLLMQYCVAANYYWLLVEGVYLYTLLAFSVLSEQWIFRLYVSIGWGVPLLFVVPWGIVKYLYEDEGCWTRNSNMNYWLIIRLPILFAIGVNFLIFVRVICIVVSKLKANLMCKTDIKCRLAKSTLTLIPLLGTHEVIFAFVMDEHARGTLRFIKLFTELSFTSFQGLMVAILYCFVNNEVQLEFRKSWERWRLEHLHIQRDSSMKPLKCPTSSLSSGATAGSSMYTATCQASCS
Chain of GLP-1R-RLuc8 / GFP^2-β-arrestin-1 (P43220 24-463): as the sequence (P43220 24-463, species assumed) above
Chain of GLP-1R-RLuc8 / GFP^2-β-arrestin-1 (P49407 whole entry partner): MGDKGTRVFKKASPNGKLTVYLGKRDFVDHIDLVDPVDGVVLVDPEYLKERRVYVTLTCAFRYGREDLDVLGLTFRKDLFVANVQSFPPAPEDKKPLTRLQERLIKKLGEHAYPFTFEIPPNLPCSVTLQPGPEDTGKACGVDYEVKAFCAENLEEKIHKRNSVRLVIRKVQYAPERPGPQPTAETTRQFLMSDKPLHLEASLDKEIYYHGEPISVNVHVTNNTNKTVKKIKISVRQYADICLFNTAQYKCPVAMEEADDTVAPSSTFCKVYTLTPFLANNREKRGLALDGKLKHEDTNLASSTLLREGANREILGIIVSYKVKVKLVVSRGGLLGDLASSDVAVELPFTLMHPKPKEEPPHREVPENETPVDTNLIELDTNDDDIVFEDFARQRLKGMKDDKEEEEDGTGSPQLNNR
Chain of GLP-1R-RLuc8 / GFP^2-β-arrestin-2(R393E, R395E) (P43220 24-463, stated change not applied): as the sequence (P43220 24-463, species assumed) above

Regarding `CC[C@H](C)[C@H](NC(=O)[C@H](Cc1ccccc1)NC(=O)[C@H](CCC(=O)O)NC(=O)[C@H]1CCC[C@@H]1NC(=O)[C@H](C)NC(=O)[C@H](C)NC(=O)[C@H](CCC(N)=O)NC(=O)[C@H]1CCC[C@@H]1NC(=O)[C@H](CCC(=O)O)NC(=O)[C@H](CC(C)C)NC(=O)[C@H](Cc1ccc(O)cc1)NC(=O)[C@H]1CCC[C@@H]1NC(=O)[C@H](CO)NC(=O)[C@@H](NC(=O)[C@H](CC(=O)O)NC(=O)[C@H](CO)NC(=O)[C@@H](NC(=O)[C@H](Cc1ccccc1)NC(=O)[C@@H](NC(=O)CNC(=O)[C@H](CCC(=O)O)NC(=O)[C@H](C)NC(=O)[C@@H](N)Cc1c[nH]cn1)[C@@H](C)O)[C@@H](C)O)C(C)C)C(=O)N[C@H]1CCC[C@@H]1C(=O)N[C@@H](Cc1c[nH]c2ccccc12)C(=O)N[C@@H](CC(C)C)C(=O)N[C@H](C(=O)N[C@H]1CCC[C@@H]1C(=O)NCC(=O)N[C@@H](CCCNC(=N)N)C(N)=O)C(C)C` [1b] (H-HAEGTFTSDVS[X1]YLE[X1]QAA[X1]EFI[X1]WLV[X1]GR-NH2; N-terminus assumed), on GLP-1R [1], the “Signal bias relative to GLP-1, in words” value was “biased toward β-arrestin-2 recruitment vs. cAMP production”. Turning to `CC[C@H](C)[C@H](NC(=O)[C@H](Cc1ccccc1)NC(=O)C[C@H](CCC(=O)O)NC(=O)[C@H](CCCCN)NC(=O)[C@H](C)NC(=O)[C@H](C)NC(=O)C[C@H](CCC(N)=O)NC(=O)CNC(=O)[C@H](CCC(=O)O)NC(=O)[C@H](CC(C)C)NC(=O)C[C@H](Cc1ccc(O)cc1)NC(=O)[C@H](CO)NC(=O)[C@H](CO)NC(=O)[C@@H](NC(=O)[C@H](CC(=O)O)NC(=O)[C@H](CO)NC(=O)[C@@H](NC(=O)[C@H](Cc1ccccc1)NC(=O)[C@@H](NC(=O)CNC(=O)[C@H](CCC(=O)O)NC(=O)[C@H](C)NC(=O)[C@@H](N)Cc1c[nH]cn1)[C@@H](C)O)[C@@H](C)O)C(C)C)C(=O)N[C@@H](C)C(=O)N[C@H](CC(=O)N[C@@H](CC(C)C)C(=O)N[C@H](C(=O)N[C@@H](CCCCN)C(=O)NCCC(=O)N[C@@H](CCCNC(=N)N)C(N)=O)C(C)C)Cc1c[nH]c2ccccc12` [2a], the “Signal bias relative to GLP-1, in words” value at GLP-1R [1] is on record as “modestly biased toward cAMP production relative to β-arrestin-1 recruitment”. Same read-out and setting: next, `CC[C@H](C)[C@H](NC(=O)[C@H](Cc1ccccc1)NC(=O)[C@H]1CCC[C@@H]1NC(=O)[C@H](CCCCN)NC(=O)[C@H](C)NC(=O)[C@H](C)NC(=O)[C@H]1CCC[C@@H]1NC(=O)CNC(=O)[C@H](CCC(=O)O)NC(=O)[C@H](CC(C)C)NC(=O)[C@H]1CCC[C@@H]1NC(=O)[C@H](CO)NC(=O)[C@H](CO)NC(=O)[C@@H](NC(=O)[C@H](CC(=O)O)NC(=O)[C@H](CO)NC(=O)[C@@H](NC(=O)[C@H](Cc1ccccc1)NC(=O)[C@@H](NC(=O)CNC(=O)[C@H](CCC(=O)O)NC(=O)[C@H](C)NC(=O)[C@@H](N)Cc1c[nH]cn1)[C@@H](C)O)[C@@H](C)O)C(C)C)C(=O)N[C@@H](C)C(=O)N[C@H]1CCC[C@@H]1C(=O)N[C@@H](CC(C)C)C(=O)N[C@H](C(=O)N[C@@H](CCCCN)C(=O)N[C@H]1CCC[C@@H]1C(=O)N[C@@H](CCCNC(=N)N)C(N)=O)C(C)C` [2b] (H-HAEGTFTSDVSS[X1]LEG[X1]AAK[X1]FIA[X1]LVK[X1]R-NH2; N-terminus assumed): “smaller bias toward β-arrestin-2 vs. cAMP production”. `CC[C@H](C)[C@H](NC(=O)[C@H]1CCC[C@@H]1NC(=O)[C@H](CCC(=O)O)NC(=O)[C@H](CCCCN)NC(=O)[C@H](C)NC(=O)[C@H]1CCC[C@@H]1NC(=O)[C@H](CCC(N)=O)NC(=O)CNC(=O)[C@H](CCC(=O)O)NC(=O)[C@H]1CCC[C@@H]1NC(=O)[C@H](Cc1ccc(O)cc1)NC(=O)[C@H](CO)NC(=O)[C@H](CO)NC(=O)[C@@H](NC(=O)[C@H](CC(=O)O)NC(=O)[C@H](CO)NC(=O)[C@@H](NC(=O)[C@H](Cc1ccccc1)NC(=O)[C@@H](NC(=O)CNC(=O)[C@H](CCC(=O)O)NC(=O)[C@H](C)NC(=O)[C@@H](N)Cc1c[nH]cn1)[C@@H](C)O)[C@@H](C)O)C(C)C)C(=O)N[C@@H](C)C(=O)N[C@@H](Cc1c[nH]c2ccccc12)C(=O)N[C@H]1CCC[C@@H]1C(=O)N[C@H](C(=O)N[C@@H](CCCCN)C(=O)NCC(=O)N[C@H]1CCC[C@@H]1C(=O)NCC(N)=O)C(C)C` [3b] (H-HAEGTFTSDVSSY[X1]EGQ[X1]AKE[X1]IAW[X1]VKG[X1]G-NH2; N-terminus assumed): on GLP-1R [2], the “GLP-1R activation by cAMP production, in words” value is recorded as “no activation of the GLP-1R could be detected”. For the same molecule, the “β-arrestin-2 recruitment to the GLP-1R, in words” value in experiment [3] is “inability to induce recruitment of either β-arrestin”. Further, the “β-arrestin-1 recruitment to the GLP-1R, in words” value in experiment [4] is reported as “inability to induce recruitment of either β-arrestin”. Consider `CC(C)C[C@H](NC(=O)[C@H](Cc1ccc(O)cc1)NC(=O)[C@H](CO)NC(=O)[C@H]1CCC[C@@H]1NC(=O)[C@@H](NC(=O)[C@H](CC(=O)O)NC(=O)[C@H](CO)NC(=O)[C@@H](NC(=O)[C@H](Cc1ccccc1)NC(=O)[C@@H](NC(=O)CNC(=O)[C@H](CCC(=O)O)NC(=O)[C@H](C)NC(=O)[C@@H](N)Cc1c[nH]cn1)[C@@H](C)O)[C@@H](C)O)C(C)C)C(=O)N[C@H]1CCC[C@@H]1C(=O)NCC(=O)N[C@@H](CCC(N)=O)C(=O)N[C@@H](C)C(=O)N[C@H]1CCC[C@@H]1C(=O)N[C@@H](CCCCN)C(=O)N[C@@H](CCC(=O)O)C(=O)N[C@@H](Cc1ccccc1)C(=O)N[C@H]1CCC[C@@H]1C(=O)N[C@@H](C)C(=O)N[C@@H](Cc1c[nH]c2ccccc12)C(=O)N[C@@H](CC(C)C)C(=O)N[C@H]1CCC[C@@H]1C(=O)N[C@@H](CCCCN)C(=O)NCC(=O)N[C@@H](CCCNC(=N)N)C(N)=O` [4b] (H-HAEGTFTSDV[X1]SYL[X1]GQA[X1]KEF[X1]AWL[X1]KGR-NH2; N-terminus assumed), for which, on GLP-1R [1], the “Signal bias relative to GLP-1, in words” value is given as “balanced signaling behavior”.
